The structures appear in SMILES notation. Bounds are passed on as bounds.

The assay deals with Gag-Pol polyprotein (Human immunodeficiency virus type 1 group M subtype B (isolate HXB2), UniProt P04585). In words: HIV-1 RT Activity Assay. The following applies: pH 7.8; 37 °C. On the procedure: HIV-1 Reverse Transcriptase Activity was measured using the colorimetric photometric immunoassay kit provided by Roche. Estimation of RT activity is achieved by quantification of the DNA synthesized by RT in a known period of time. Incubation was performed for 2 h at 37°C. PolyA:oligodT RNA template:primer hybrid at a concentration of 2.2 μg/ml was incubated with 20 nMof purified recombinant HIV-1 reverse transcriptase in a 50 μL incubation mixture containing 50 mM Tris-HCl pH 7.8, 160 mM KCl, 11 mM MgCl2, 5.3 mM DTT, 0.5 mM EDTA, 0.3% Triton-X 100 and 10 μM dTTP (unless otherwise mentioned) in the presence of digoxigeninconjugated dUTP (dUTP-DIG) and biotin-conjugateddUTP (dUTP-biotin). In a following step, the synthesised biotin-DIG-labelled DNA was bound to the surface of streptavidin-coated ELISA-plate wells. After washing out the unbound material, an antibody to digoxigenin, conjugated to peroxidase (anti-DIG-POD), was added and bound to the digoxigenin-labelled nucleotides. After a washing step and addition of the appropriate substrate, peroxidase catalyzed the transformation of the substrate, ABTS, to a yellow coloured reaction product. 15 min after ABTS addition, the coloured product was measured using a microtitre plate (ELISA) reader. For the estimation of inhibitory action of the compounds, reverse transcriptase was incubated in the presence of the potential inhibitor for 45 min at room temperature before addition of its substrates (pre-incubation).
As to `COc1ccc2nc(N3C(=O)CSC3c3c(Cl)cccc3Cl)sc2c1` (stereo not given) [3-(6-Methoxybenzo[d]thiazol-2-yl)-2-(2,6-dichlorophenyl)thiazolidin-4-one (12)], the IC50 (usually the concentration that inhibits the measured activity by half) is greater than 40 µM.
Under `COc1ccc2nc(N3C(=O)CSC3c3c(F)cccc3Cl)sc2c1` (stereo not given) [3-(6-Methoxybenzo[d]thiazol-2-yl)-2-(2-chloro-6-fluorophenyl)thiazolidin-4-one (13)] stands greater than 40 µM.
`COc1cccc2sc(N3C(=O)CSC3c3c(F)cccc3Cl)nc12` (stereo not given) [3-(4-Methoxybenzo[d]thiazol-2-yl)-2-(2-chloro-6-fluorophenyl)thiazolidin-4-one (16)] displayed an IC50 greater than 40 µM.
`COc1ccc2nc(N3C(=O)CSC3c3c(F)cccc3F)sc2c1` (stereo not given) [3-(6-Methoxybenzo[d]thiazol-2-yl)-2-(2,6-difluorophenyl)thiazolidin-4-one (14)] came in with an IC50 greater than 40 µM.
Under `O=C1CSC(c2c(F)cccc2Cl)N1c1nc2ccc(Cl)cc2s1` (stereo not given) [3-(6-Chlorobenzo[d]thiazol-2-yl)-2-(2-chloro-6-fluorophenyl)thiazolidin-4-one (4)] stands greater than 40 µM; under `O=C1CSC(c2c(Cl)cccc2Cl)N1c1nc2c(Cl)cccc2s1` (stereo not given) [3-(4-Chlorobenzo[d]thiazol-2-yl)-2-(2,6-dichlorophenyl)thiazolidin-4-one (6)], greater than 40 µM.
Under `O=C1CSC(c2c(F)cccc2F)N1c1nc2c(Cl)cccc2s1` (stereo not given) [3-(4-Chlorobenzo[d]thiazol-2-yl)-2-(2,6-difluorophenyl)thiazolidin-4-one (8)] stands greater than 40 µM; under `O=C1CSC(c2c(F)cccc2Cl)N1c1nc2ccccc2s1` (stereo not given) [3-(Benzo[d]thiazol-2-yl)-2-(2-chloro-6-fluorophenyl)thiazolidin-4-one (2)], greater than 40 µM; under `CCOc1ccc2nc(N3C(=O)CSC3c3c(F)cccc3Cl)sc2c1` (stereo not given) [3-(6-Ethoxybenzo[d]thiazol-2-yl)-2-(2-chloro-6-fluorophenyl)thiazolidin-4-one (18)], 3.4 µM.
Under `CCOc1ccc2nc(N3C(=O)CSC3c3c(F)cccc3F)sc2c1` (stereo not given) [3-(6-Ethoxybenzo[d]thiazol-2-yl)-2-(2,6-difluorophenyl)thiazolidin-4-one (19)] stands greater than 40 µM.
For the compound `O=C1CSC(c2c(Cl)cccc2Cl)N1c1nc2ccc(F)cc2s1` (stereo not given) [3-(6-Fluorobenzo[d]thiazol-2-yl)-2-(2,6-dichlorophenyl)thiazolidin-4-one (9)], half-maximal inhibition (IC50) was put at 0.25 µM.
Under `O=C1CSC(c2c(F)cccc2F)N1c1nc2ccccc2s1` (stereo not given) [3-(Benzo[d]thiazol-2-yl)-2-(2,6-difluorophenyl)thiazolidin-4-one (1)] stands greater than 40 µM.
The compound `COc1cccc2sc(N3C(=O)CSC3c3c(Cl)cccc3Cl)nc12` (stereo not given) [3-(4-Methoxybenzo[d]thiazol-2-yl)-2-(2,6-dichlorophenyl)thiazolidin-4-one (15)] had a concentration for half-maximal inhibition (IC50) of 3 µM.
With `O=C1CSC(c2c(F)cccc2Cl)N1c1nc2c(Cl)cccc2s1` (stereo not given) [3-(4-Chlorobenzo[d]thiazol-2-yl)-2-(2-chloro-6-fluorophenyl)thiazolidin-4-one (7)], half-maximal inhibition (IC50) required 0.04 µM.
As to `O=C1CSC(c2c(Cl)cccc2Cl)N1c1nc2ccc(Cl)cc2s1` (stereo not given) [3-(6-Chlorobenzo[d]thiazol-2-yl)-2-(2,6-dichlorophenyl)thiazolidin-4-one (3)], the IC50 is greater than 40 µM.
